Experiments:
Proteus mirabilis = experiment: Antibacterial power measurement of first compound (bacterial inhibition rate, broth, absorbance 600 nm); format: cell-based; conditions: 0.01 g first compound in 25 ml broth, 3,000 CFU/ml, 35° C. for 16 hours
E. coli = experiment: as above; format: cell-based; conditions: Escherichia coli, 0.01 g first compound in 25 ml broth, 3,000 CFU/ml, 35° C. for 16 hours

N=C(N)N [Guanidine, reference compound]
inhibition of growth at 400 µg/mL (Proteus mirabilis): 97.2% | inhibition of growth at 400 µg/mL (E. coli): 96.5%

CCCCCCCCCCCC[N+](CCO)(CCCCCCCCCC)CCCCCCCCCCCC [reference compound]
inhibition of growth at 400 µg/mL (Proteus mirabilis): 81.3% | inhibition of growth at 400 µg/mL (E. coli): 79.8%

CCCCCCCCCC[N+](C)(C)CCCCCCCCO [reference compound]
inhibition of growth at 400 µg/mL (Proteus mirabilis): 85.1% | inhibition of growth at 400 µg/mL (E. coli): 82.1%

CCCCCCCCCC[N+](C)(C)CCO [Antibacterial Deodorant Monomer F]
inhibition of growth at 400 µg/mL (Proteus mirabilis; 16 h): 83.1% | inhibition of growth at 400 µg/mL (E. coli; 16 h): 96.4%

CCCCCCCCCC[N+](C)(CCO)CCO [Antibacterial Deodorant Monomer A]
inhibition of growth at 400 µg/mL (Proteus mirabilis): 99.9% | inhibition of growth at 400 µg/mL (E. coli): 98.9%

CCCCCCCCCCCC[N+](C)(C)CCCCCCCCCCCC [Didodecyldimethylammonium chloride, reference compound]
inhibition of growth at 400 µg/mL (Proteus mirabilis): 88.5% | inhibition of growth at 400 µg/mL (E. coli): 90.1%

CCCCCCCCCCCC[N+](C)(C)CCO [Antibacterial Deodorant Monomer E]
inhibition of growth at 400 µg/mL (Proteus mirabilis): 96.9% | inhibition of growth at 400 µg/mL (E. coli): 96.1%

CCCCCCCCCC[N+](C)(C)CCO [Antibacterial Deodorant Monomer D]
inhibition of growth at 400 µg/mL (Proteus mirabilis): 91.7% | inhibition of growth at 400 µg/mL (E. coli): 94.4%

CCCCCCCC[N+](C)(CCO)CCO [Antibacterial Deodorant Monomer B]
inhibition of growth at 400 µg/mL (Proteus mirabilis): 91.2% | inhibition of growth at 400 µg/mL (E. coli): 89.3%

CCCC[N+](C)(CCO)CCO [Antibacterial Deodorant Monomer G]
inhibition of growth at 400 µg/mL (Proteus mirabilis): 18.3% | inhibition of growth at 400 µg/mL (E. coli): 15.2%

CCCCCCCCCCCCCCCC[N+](C)(C)C [Hexadecyltrimethylammonium chloride, reference compound]
inhibition of growth at 400 µg/mL (Proteus mirabilis; 16 h): 93.5% | inhibition of growth at 400 µg/mL (E. coli; 16 h): 92.1%

Source: patent publication US20230381077A1, “Antibacterial And Deodorizing Composition, And Preparation Method Therefor” (LG Chem, Ltd., priority 2021, published 2023)
